We go through 7 molecules from ChEMBL document CHEMBL1154330, “Cucurbitane-type triterpenoids from the African plant Momordica balsamina” (J Nat Prod, 2009).

Bounds are passed on as bounds.

This assay has as its system MCF7. The assay can be described thus: Cytotoxicity against human MCF7 cells after 24 hrs by MTT assay. It counts as functional, cell-based. Conditions: MCF7, 24 h.
In turn, `CC(C)=C[C@H](O)C[C@@H](C)[C@H]1CC[C@@]2(C)[C@@H]3[C@@H](O)C=C4[C@@H](CC[C@H](O)[C@]4(C)CO)[C@]3(C)CC[C@]12C` [BALSAMINOL A] had an IC50 of 40 µM. This lies in the double-digit micromolar range.
Take `CO[C@H]1C=C2[C@@H](CC[C@H](O)[C@]2(C)CO)[C@]2(C)CC[C@]3(C)[C@@H]([C@H](C)C[C@@H](O)C=C(C)C)CC[C@@]3(C)[C@H]12` [BALSAMINOL B]: the IC50 was determined as 55.3 µM.
`C[C@H](C/C=C/C(C)(C)O)[C@H]1CC[C@@]2(C)[C@@H]3[C@@H](O)C=C4[C@@H](CC[C@H](O)C4(C)C)[C@]3(C)CC[C@]12C` gave an IC50 of 45.3 µM.
Molecule `C=C(C)[C@@H](O)[C@H](O)C[C@@H](C)[C@H]1CC[C@@]2(C)[C@@H]3[C@@H](O)C=C4[C@@H](CC[C@H](O)[C@]4(C)CO)[C@]3(C)CC[C@]12C` [BALSAMINAPENTAOL A] displayed an IC50 of 47 µM.
On to `C[C@H](C/C=C/C(C)(C)O)[C@H]1CC[C@@]2(C)[C@@H]3[C@@H](O)C=C4[C@@H](CC[C@H](O)C4(C)C)[C@]3(C)C[C@@H](O)[C@]12C` [CUCURBALSAMINOL A], for which the IC50 was over 133 µM.
The value for `COc1cccc2c1C(=O)c1c(O)c3c(c(O)c1C2=O)C[C@@](O)(C(=O)CO)C[C@@H]3O[C@H]1C[C@H](N)[C@H](O)[C@H](C)O1` [DOXORUBICIN] was 0.92 µM; that for `CC(C)=C[C@H](O)C[C@@H](C)[C@H]1CC[C@@]2(C)[C@@H]3C=C[C@@]45OC[C@]3(CC[C@]12C)[C@@H]4CC[C@H](O)C5(C)C` [KARAVILAGENIN E] was 30.7 µM.
